Laboratory results taken from patent US11078185B2, “Mycobacterium tuberculosis—thioredoxin reductase inhibitor as an antitubercular agent” (Technische Universität Dortmund, priority 2017, dated 2021).
Values after ≈ are worked out from the molar mass of the structure shown. Values joined by “and” are separate entries in the source; they are usually repeats but may differ in a detail not shown here. Equal entries are not always repeated.

Tests used:
[1] = target: MtTrxR (Mycobacterium tuberculosis thioredoxin reductase) (Mycobacterium tuberculosis, UniProt P9WHH1); assay: MtTrxR activity assay according to Lu et al. (DTNB assay); assay type: biochemical; details: error range = standard deviation
Sequence of MtTrxR (Mycobacterium tuberculosis thioredoxin reductase) (P9WHH1 whole entry): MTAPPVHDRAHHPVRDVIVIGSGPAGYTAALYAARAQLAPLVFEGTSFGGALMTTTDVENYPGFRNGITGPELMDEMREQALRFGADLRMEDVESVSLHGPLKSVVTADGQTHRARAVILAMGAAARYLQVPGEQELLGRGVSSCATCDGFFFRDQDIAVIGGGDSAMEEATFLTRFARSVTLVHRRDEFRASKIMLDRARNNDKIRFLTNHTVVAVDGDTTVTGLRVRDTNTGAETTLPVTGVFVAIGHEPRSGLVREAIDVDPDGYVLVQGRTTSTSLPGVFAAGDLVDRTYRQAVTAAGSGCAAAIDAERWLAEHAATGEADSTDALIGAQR
Protocol: The compounds according to the invention show good inhibitory activity towards MtTrxR. In a preferred embodiment, the compounds according to the invention have an IC50 value according to Lu et al. from 0.10 to 10.00 μM. Methods for determining the IC50 value according to Lu et al. are known to those skilled in the art. Reference is made in this respect to J. Lu, A. Vlamis-Gardikas, K. Kandasamy, R. Zhao, T. N. Gustafsson, L. Engstrand, S. Hoffner, L. Engman, A. Holmgren, FASEB J. 2013, 27, 1394-1403.
(§1) A biochemical evaluation of the inhibitory activity (i.e. the IC50 value) of the compounds obtained towards MtTrxR by means of an activity assay according to Lu et al. (error range indicated by the standard deviation) was conducted. The testing of the potential inhibitors against MtTrxR was performed according to the description of Lu et al. Furthermore, MIC50 values (generic minimum inhibitory concentration) of certain compounds were measured with the BD BACTEC™ MGIT™ system: […]

[2] = system: Mycobacterium tuberculosis; assay: MIC50 measured with the BD BACTEC MGIT system; assay type: cell-based; details: read-out: MIC50 [μM] (μG/mL)
Protocol: as §1

[3] = assay type: in vitro ADME
Protocol: Selected compounds were investigated in terms of their permeability with the aid of the PAMPA assay (Parallel Artificial Membrane Permeation Assay). The permeability of the compounds across an artificial membrane of phospholipids was tested in a filter plate. Since a significant difference existed between the artificial membrane and the mycobacterial cell wall, the values should only be used as a measure to be able to evaluate the permeability of the compounds with respect to each other. For this purpose, the distribution between a donor and acceptor chamber without membrane was determined as the reference value (100% flux), in which the concentration of the compounds in the chambers was determined spectrophotometrically. Subsequently, the permeability of compounds 1, 8, 63 and 68 across the membrane used was determined. The PAMPA flux [%] value was 12.60 for compound 1, 29.70 for compound 8, 53.60 for compound 63, and 41.00 for compound 68.

[4] = system: Mycobacterium tuberculosis strain H37Rv in infected human macrophages; assay: Antimycobacterial activity in infected human macrophages (FIG. 2); assay type: cell-based
Source text: FIG. 2 is directed to the antimycobacterial activity of compound 68 according to the invention against Mycobacterium tuberculosis strain H37Rv in infected human macrophages.

human macrophages = assay type: cell-based
Source text: FIG. 3 is directed to the cytotoxic activity of compound 68 according to the invention against human macrophages.

[5] = system: Mycobacterium tuberculosis; assay: Antimycobacterial activity (FIG. 1); assay type: cell-based
Source text: FIG. 1 is directed to the antimycobacterial activity of compounds 2, 8 and 68 according to the invention.

| SMILES | IC50 [1] | MIC50 [2] [µM] | PAMPA flux [%] [3] [%] | antimycobacterial activity in infected human macrophages [4] | cytotoxicity towards macrophages (human macrophages) | antimycobacterial activity [5] |
| --- | --- | --- | --- | --- | --- | --- |
| COc1ccc2nc(C)cc(Nc3ccc(S(=O)(=O)c4ccc(N)cc4)cc3)c2c1 [Compound 9, N-(4-((4-aminophenyl)sulfonyl)phenyl)-6-methoxy-2-methylquinolin-4-amine] | 5.21 ± 0.24 µM |  |  |  |  |  |
| COc1ccc2nc(C)cc(Nc3ccc(Cc4ccc(Nc5ccncc5)cc4)cc3)c2c1 [Compound 63, 6-methoxy-2-methyl-N-(4-(4-(pyridin-4-ylamino)benzyl)phenyl)quinolin-4-amine] | 5.64 µM and 4.7 µM | 8 to 32 (≈ 3.57 to 14.3 µg/mL) | 53.60 |  |  |  |
| COc1ccc2nc(C)cc(Nc3ccc(Cc4ccc(Nc5ccncn5)cc4)cc3)c2c1 [Compound 68, 6-methoxy-2-methyl-N-(4-(4-(pyrimidin-4-ylamino)benzyl)phenyl)quinolin-4-amine] | 2.03 µM and 1.7 µM | 2 to 8 (≈ 0.895 to 3.58 µg/mL) | 41.00 | concentration-dependent antimycobacterial activity | without being toxic | concentration-dependent antimycobacterial activity |
| COc1ccc2nc(C)cc(Nc3ccc(S(=O)(=O)c4ccc(NC(C)=O)cc4)cc3)c2c1 [Compound 10, N-(4-((4-((6-methoxy-2-methylquinolin-4-yl)amino)phenyl)sulfonyl)phenyl)acetamide] | 3.59 ± 1.95 µM |  |  |  |  |  |
| COc1ccc2nc(C)cc(Nc3ccc(S(=O)(=O)c4ccc(Nc5ccncn5)cc4)cc3)c2c1 [Compound 24, 6-methoxy-2-methyl-N-(4-((4-(pyrimidin-4-yl-amino)phenyl)sulfonyl)phenyl)quinolin-4-amine] | 0.51 ± 0.04 µM | 8 to 32 (≈ 3.98 to 15.9 µg/mL) |  |  |  |  |
| COc1ccc2nc(C)cc(Nc3ccc(C(=O)c4ccc(Nc5ccncc5)cc4)cc3)c2c1 [Compound 45, (4-((6-methoxy-2-methylquinolin-4-yl)amino)phenyl)(4-(pyridin-4-yl-amino)phenyl)methanone] | 1.04 ± 0.2 µM | > 32 |  |  |  |  |
| COc1ccc2nc(C)cc(Nc3ccc(S(=O)(=O)c4ccc(Nc5cc(C(C)(C)C)n[nH]5)cc4)cc3)c2c1 [Compound 25, N-(4-((4-((3-(tert-butyl)-1H-pyrazol-5-yl)amino)phenyl)sulfonyl)phenyl)-6methoxy-2-methylquinolin-4-amine] | 9.1 ± 0.3 µM |  |  |  |  |  |
| COc1ccc2nc(C)cc(Nc3ccc(O)cc3)c2c1 [Compound 1, 4-((6-Methoxy-2-methylquinolin-4-yl)amino)phenol, reference compound] | 11.5 ± 1.52 µM |  | 12.60 |  |  |  |
| COC(=O)c1ccc(Nc2ccc(S(=O)(=O)c3ccc(Nc4cc(C)nc5ccc(OC)cc45)cc3)cc2)cc1 [Compound 27, methyl-4-((4-((4-((6-methoxy-2-methylquinolin-4-yl)amino)phenyl)sulfonyl)phenyl)amino) benzoate] | 4.8 ± 1.6 µM |  |  |  |  |  |
| COc1ccc2nc(C)cc(Nc3ccc(S(=O)(=O)c4ccc(Nc5ccncc5)cc4)cc3)c2c1 [Compound 2, 6-methoxy-2-methyl-N-(4-((4-(pyridin-4-ylamino)phenyl)sulfonyl)phenyl)quinolin-4-amine] | 0.25 ± 0.04 µM | 8 to 32 (≈ 3.97 to 15.9 µg/mL) |  |  |  | concentration-dependent antimycobacterial activity |
| COc1ccc(Nc2ccc(S(=O)(=O)c3ccc(Nc4cc(C)nc5ccc(OC)cc45)cc3)cc2)cc1 [Compound 26, 6-methoxy-N-(4-((4-((4-methoxyphenyl)amino)phenyl)sulfonyl)phenyl)-2-methylquinolin-4-amine] | 1.9 ± 0.8 µM | 8 to 32 (≈ 4.21 to 16.8 µg/mL) |  |  |  |  |
| COc1ccc2nc(C)cc(Nc3ccc(Cc4ccc(N)cc4)cc3)c2c1 [Compound 8, N-(4-(4-aminobenzyl)phenyl)-6-methoxy-2-methylquinolin-4-amine] | 1.8 µM | 4 to 8 (≈ 1.48 to 2.96 µg/mL) | 29.70 |  |  | concentration-dependent antimycobacterial activity |
